Results on 8 compounds are retold here after ChEMBL document CHEMBL1201862, “PubChem BioAssay data set” (2004).

Active and inactive are the calls of the source. A value given as a limit tells only on which side of the number the result lay.

For experiment [1], the target named is Fructose-bisphosphate aldolase (Mycobacterium tuberculosis, UniProt P9WQA3). Kind of experiment: Fluorescence-based biochemical high throughput dose response assay for inhibitors of the fructose-bisphosphate aldolase (FBA) of M. tuberculosis. Format: functional.
Experiment [2] has as its target T1, Trace amine-associated receptor 1 (Homo sapiens, UniProt Q96RJ0).
T1 sequence (Q96RJ0 whole entry): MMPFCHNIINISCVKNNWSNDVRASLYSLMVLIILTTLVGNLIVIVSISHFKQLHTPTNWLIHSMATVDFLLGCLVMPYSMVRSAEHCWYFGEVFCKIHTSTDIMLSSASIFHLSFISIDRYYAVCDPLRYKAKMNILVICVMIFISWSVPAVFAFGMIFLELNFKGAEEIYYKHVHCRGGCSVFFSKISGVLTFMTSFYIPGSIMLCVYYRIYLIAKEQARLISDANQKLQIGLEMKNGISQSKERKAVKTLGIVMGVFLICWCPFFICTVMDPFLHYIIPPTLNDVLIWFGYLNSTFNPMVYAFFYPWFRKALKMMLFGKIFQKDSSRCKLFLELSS
Kind of experiment: Fluorescence-based cell-based high throughput dose response assay to identify agonists of the human trace amine associated receptor 1 (TAAR1). Format: functional.

Experiment [3] has as its target T1, Trace amine-associated receptor 1. Description: Counterscreen for agonists of the human trace amine associated receptor 1 (hTAAR1): Fluorescence-based cell-based high throughput dose response assay to identify hTAAR1 agonist that also desensitize TAAR1 receptor response. Format: functional.
Experiment [4] can be described thus: cells. Format: functional, cell-based.
The nature of experiment [5]: cells. Format: functional, cell-based. The source holds these as a separate data set.
The subject of another experiment is INS1. Description: beta cell apoptosis inhibitors, cytokine rescue, dose response, luminescence, retest (AID 449756).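 Note: cell death triggered by IL-1 beta plus TNF-alpha plus IFN-gamma mixture; protective hits raise ATP signal compared with cytokine alone wells.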 Format: functional, cell-based. The settings on record: Rattus norvegicus.
Experiment [6] in a line: cytotoxicity in HEK-293T cells, dose response, cytotoxicity control for BCR NF-kB inhibitor project, luminescence, B-cell screen hits (AID 489021).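 Note: HEK-293T cells carrying an NF-kB luciferase reporter; cells exposed to compound for about 14 hours before viability readout.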 Format: functional, cell-based.
Experiment [7] is described as follows: inhibitors of intracellular T. cruzi replication, confirmation, NIH3T3 host cells, beta-gal luminescence (AID 2044).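 Note: intracellular parasites grown in NIH/3T3 mouse fibroblasts as host cells; luminescent beta-galactosidase reporter signal from transgenic T. cruzi replicating inside host cells; inhibitors lower the luminescence signal.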 Format: functional, cell-based.
Experiment [8] can be described thus: NIH-3T3 fibroblast cytotoxicity, dose response, cytotoxicity control, cell-based, fluorescence, Alamar Blue, secondary assay (AID 2327).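 Note: NIH-3T3 mouse fibroblasts cultured with fluconazole at 8 µg/mL.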 Format: functional.
Experiment [9] deals with COUP transcription factor 2 (Homo sapiens, UniProt P24468). Kind of experiment: Luminescence-based cell-based high throughput dose response assay to identify inhibitors of COUP-TFII (NR2F2). Format: functional.
The nature of experiment [10]: C. albicans growth with fluconazole, confirmation, fluorescence, retest (AID 2467). Format: functional, cell-based.
The nature of experiment [11]: cytotoxicity toward NIH3T3 fibroblasts, dose response, counter-screen, cell-based, ATP luminescence, mouse fibroblasts (AID 2010).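 Note: cells exposed to compound for about 90 hours before reading.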 Format: functional.
The nature of experiment [12]: cells. Format: functional, cell-based. The source holds these as a separate data set.
Experiment [13] deals with Nuclear receptor subfamily 0 group B member 1 (Homo sapiens, UniProt P51843). Format: functional, cell-based.
The target of a further experiment is Major prion protein (Homo sapiens, UniProt P04156). Format: functional, cell-based.
Experiment [14] in a line: cells.
A short description of experiment [15]: cells. Particulars: HEK-CNG. Format: functional, cell-based.
The target of another experiment is Galanin receptor type 3 (Homo sapiens, UniProt O60755). Description: Fluorescence-based cell-based primary high throughput dose response assay to identify antagonists of the Galanin Receptor 3 (GalR3). Format: functional.
Another experiment has as its target Albumin (Bos taurus, UniProt P02769). Description: Counterscreen for inhibitors of T-cell receptor (TCR)-CD3 interaction: Fluorescence-based biochemical high throughput dose response assay to identify inhibitors of T-cell receptor (TCR)-CD3 interaction using a TAMRA-labeled BSA probe. Format: functional.
Experiment [16] deals with 26S proteasome non-ATPase regulatory subunit 14 (Homo sapiens, UniProt O00487). Description: inhibition of proteasome subunit RPN11 – biochemical, fluorescence polarization, uHTS hits, confirmation (AID 602368). Format: functional.
The target in a further experiment is Prothrombin (Bos taurus, UniProt P00735). Description: thrombin inhibition, dose response, biochemical, fluorescence polarization, uHTS hits (AID 602369). Format: functional.
The target of experiment [17] is 72 kDa type IV collagenase (Homo sapiens, UniProt P08253). Kind of experiment: Dose Response validation of uHTS RPN11 inhibitor hits using a MMP-2 Fluorescence assay. Format: functional.
Experiment [18] has as its target T2, RNA-binding protein pos-1 (Caenorhabditis elegans, UniProt G5EF15).
T2 sequence (G5EF15 whole entry): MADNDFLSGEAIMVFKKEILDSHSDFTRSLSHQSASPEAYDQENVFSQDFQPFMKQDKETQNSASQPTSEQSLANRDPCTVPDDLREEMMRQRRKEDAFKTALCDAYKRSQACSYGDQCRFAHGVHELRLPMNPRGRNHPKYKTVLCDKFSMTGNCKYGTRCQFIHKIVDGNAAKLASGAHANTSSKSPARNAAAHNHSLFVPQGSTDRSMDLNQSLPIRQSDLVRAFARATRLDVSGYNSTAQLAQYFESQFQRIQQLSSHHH
Kind of experiment: inhibitors of POS-1/mex-3 RNA binding, dose response, biochemical, fluorescence polarization (AID 1964).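 Note: purified POS-1 fused to maltose binding protein made in E. coli; potency of compounds blocking POS-1 binding to fluorescent RNA.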

Experiment [19] can be described thus: HepG2 cell cytotoxicity, dose response, cytotoxicity control for Shn3 inhibitor project, CellTiter-Glo, cherry-picked (AID 624134). Format: functional, cell-based.
Experiment [20] in a line: inhibitors of control Renilla luciferase reporter, dose response, counter-screen for Shn3 3'UTR targeting project, Clone20-Shn3RL cells, dual-Glo, cherry-pick, set 2 (AID 720724). Format: functional, cell-based. The settings on record: Dual-Go Shn3RL.
A short description of experiment [21]: control 3'UTR Renilla luciferase suppression, dose response, counter-screen for Shn3 inhibitor project, cell-based, Clone20-Shn3RL, cherry-picked (AID 624133). Format: functional.
The nature of experiment [22]: reduction of Shn3 3'UTR firefly luciferase signal, dose response, Schnurri-3 inhibitor project, cell-based, Clone20 osteoblasts, cherry-pick, set 2 (AID 720490).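 Note: actives lower the luminescence signal as inhibitors.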 Format: functional.
The nature of experiment [23]: reduction of endogenous Shn3 mRNA, dose response, qPCR, Clone20 cells, cherry-pick (AID 743415). Format: functional, cell-based.
Experiment [24] can be described thus: Shn3 3'UTR reporter inhibitors, dose response, cell-based, Clone20 osteoblasts, firefly luciferase, cherry-picked (AID 624132).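 Note: firefly luciferase luminescence from reporter carrying the Shn3 3'UTR in osteoblasts.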 Format: functional.

Consider `O=C(Nc1cccc2ccccc12)N1CCc2ccccc2C1`, for which the IC50 in experiment [1] is > 9.99 µM (inactive); in [3], 9.86 µM (active); in “cells [4]”, > 29.9 µM (inactive). For the same compound, the EC50 in [2] was 0.266 µM (active); in the experiment “cells [5]”, > 29.9 µM (inactive).

For the compound `CCOc1ccc(-[n+]2c(-c3ccccc3)cn3c2CCCCC3)cc1`, in the experiment with INS1, the concentration at half-maximal activity (AC50) was 0.822 µM (active). Besides, the IC50 in [6] was > 80 µM (inactive); in [9], 8.69 µM (active). The EC50 is 0.534 µM (active) in experiment [7], > 150 µM (inactive) in experiment [8], 16.3 µM (active) in experiment [10] and 7 µM (active) in experiment [11].

With `COc1ccccc1OCc1cc(C(=O)N(C)CCC2CCCCO2)no1` (stereo unspecified), the IC50 (in the experiment “cells [12]”; in [13]) was > 67.5 µM (inactive) in each case.

On to `CSc1nc(-c2cccs2)c(C#N)c(=O)[nH]1`, for which the IC50 on Major prion protein was 3.22 µM (active).

On to `CSc1nc(O)c(C#N)c(-c2cccs2)n1`, for which the IC50 in “cells [14]” is > 138 µM (inactive).

As for `COc1cccc(CN(C)C(=O)CNC(=O)c2ccc(-c3ccccc3)cc2)c1OC`, in the experiment “cells [15]”, the EC50 was > 29.9 µM (inactive). Besides, the IC50 on Galanin receptor type 3 was > 1.11 µM (active).

In the case of `O=C1NC(=O)N(CCc2ccccc2)C(=O)/C1=C/NNC(=O)c1ccccc1O`, the IC50 is > 94 µM (inactive) at Albumin, 63.5 µM (active) in [16], 47.2 µM (active) at Prothrombin and > 100 µM (inactive) in [17]. Moreover, the EC50 in [18] was 69.9 µM (active).

`COc1cc(CN2CCc3ccccc3C2)ccc1O`: the AC50 is 24.9 µM (active) in [19]; 2.93 µM (active) in [20]; 5.64 µM (active) in experiment [21]; 2.65 µM (active) in experiment [22]; 3.71 µM (active) in experiment [23]; 0.912 µM (active) in experiment [24]. For the same compound, the IC50 in the experiment “cells [4]” was > 29.9 µM (inactive). In addition, the EC50 in “cells [5]” is > 29.9 µM (inactive).
